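Results reflect a 48-hour exposure of cells in 96-well plates to compound at five concentrations. TGI denotes the concentration required for complete inhibition of growth.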
Columns and labels:
Assay in all cases: inhibition of tumour cell growth, NCI panel, 48 h
[1] = system: T-47D breast
[2] = system: K-562 leukemia
[3] = system: UACC-62 melanoma
[4] = system: HOP-62 NSCLC
[5] = system: MALME-3M melanoma
[6] = system: NCI-H460 lung
[7] = system: SF-295 CNS
[8] = system: COLO 205 colon
[9] = system: MDA-MB-435
[10] = system: EKVX NSCLC
[11] = system: SW-620 colon
[12] = system: HL-60(TB) leukemia
[13] = system: OVCAR-3 ovarian
[14] = system: U251 CNS
[15] = system: HOP-92 NSCLC
[16] = system: MDA-MB-231 breast
[17] = system: HCC-2998 colon
[18] = system: SN12C renal
[19] = system: ACHN renal
[20] = system: HCT-116 colon
[21] = system: M14 melanoma
[22] = system: UACC-257 melanoma
[23] = system: KM12 colon
[24] = system: SNB-75 CNS
[25] = system: SF-539 CNS
[26] = system: HCT-15 colon
[27] = system: PC-3 prostate
[28] = system: BT-549 breast
[29] = system: UO-31 renal
[30] = system: NCI/ADR-RES ovarian
[31] = system: MDA-N
[32] = system: SK-MEL-2 melanoma
[33] = system: IGROV1 ovarian
[34] = system: 786-0 renal
[35] = system: CAKI-1 renal
[36] = system: HT29 colon
[37] = system: SF-268 CNS
[38] = system: A498 renal
[39] = system: TK-10 renal
[40] = system: HS 578T breast
[41] = system: MOLT-4 leukemia
[42] = system: RXF 393 renal
[43] = system: NCI-H522 lung
[44] = system: DU-145 prostate
[45] = system: SK-MEL-28 melanoma
[46] = system: OVCAR-4 ovarian
[47] = system: LOX IMVI melanoma
[48] = system: MCF7 breast
[49] = system: NCI-H226 lung
[50] = system: SK-MEL-5 melanoma
[51] = system: A549 NSCLC
[52] = system: OVCAR-8 ovarian
[53] = system: SR leukemia
[54] = system: OVCAR-5 ovarian
[55] = system: SK-OV-3 ovarian
[56] = system: NCI-H23 lung
[57] = system: SNB-19 CNS
[58] = system: CCRF-CEM leukemia
[59] = system: RPMI-8226 leukemia

SMILES: O=C(/C=C/c1ccco1)c1cccc(C(=O)/C=C/c2ccco2)n1
- TGI [1]: > 100 µM
- TGI [2]: > 100 µM
- TGI [3]: > 100 µM
- TGI [4]: > 88.6 µM
- TGI [5]: > 100 µM
- TGI [6]: > 100 µM
- TGI [7]: > 100 µM
- TGI [8]: > 67.4 µM
- TGI [9]: > 100 µM
- TGI [10]: > 100 µM
- TGI [11]: 10.4 µM
- TGI [12]: 0.417 µM
- TGI [13]: > 100 µM
- TGI [14]: 22.6 µM
- TGI [15]: > 81.9 µM
- TGI [16]: > 100 µM
- TGI [17]: > 100 µM
- TGI [18]: 32 µM
- TGI [19]: 72.7 µM
- TGI [20]: 18.5 µM
- TGI [21]: > 96.3 µM
- TGI [22]: > 100 µM
- TGI [23]: > 55.8 µM
- TGI [24]: > 100 µM
- TGI [25]: 17.5 µM
- TGI [26]: 28.1 µM
- TGI [27]: > 100 µM
- TGI [28]: 78.4 µM
- TGI [29]: 24.9 µM
- TGI [30]: > 73.3 µM
- TGI [31]: > 100 µM
- TGI [32]: > 58.6 µM
- TGI [33]: 53.5 µM
- TGI [34]: 20.5 µM
- TGI [35]: > 100 µM
- TGI [36]: 37.4 µM
- TGI [37]: > 38.9 µM
- TGI [38]: > 100 µM
- TGI [39]: > 100 µM
- TGI [40]: > 28.4 µM
- TGI [41]: 6.25 µM
- TGI [42]: > 65.1 µM
- TGI [43]: 19.6 µM
- TGI [44]: > 100 µM
- TGI [45]: 67.7 µM
- TGI [46]: > 100 µM
- TGI [47]: 5.37 µM
- TGI [48]: > 100 µM
- TGI [49]: > 100 µM
- TGI [50]: > 100 µM
- TGI [51]: > 100 µM
- TGI [52]: 8.83 µM
- TGI [53]: 6.82 µM
- TGI [54]: > 81.9 µM
- TGI [55]: > 100 µM
- TGI [56]: 31.8 µM
- TGI [57]: > 48.8 µM

SMILES: CC(C)CCCC(C)[C@H]1CC[C@H]2N=C(Nc3ccccc3)CCC[C@]12C (some centres undefined)
- TGI [1]: 14.2 µM
- TGI [2]: 3.55 µM
- TGI [3]: 3.46 µM
- TGI [4]: 6.12 µM
- TGI [5]: 6.39 µM
- TGI [6]: 3.92 µM
- TGI [7]: 3.1 µM
- TGI [8]: 2.67 µM
- TGI [9]: 3.75 µM
- TGI [11]: > 100 µM
- TGI [12]: 4.7 µM
- TGI [13]: 6.8 µM
- TGI [14]: 4.33 µM
- TGI [15]: 9.42 µM
- TGI [16]: 3.04 µM
- TGI [18]: 3.48 µM
- TGI [22]: 4.85 µM
- TGI [23]: > 100 µM
- TGI [24]: 3.99 µM
- TGI [25]: 3.28 µM
- TGI [26]: 4.68 µM
- TGI [58]: 25.3 µM
- TGI [27]: > 100 µM
- TGI [28]: 7.66 µM
- TGI [29]: 3.12 µM
- TGI [30]: 3.32 µM
- TGI [31]: 10.9 µM
- TGI [32]: 3.2 µM
- TGI [33]: 3.34 µM
- TGI [34]: 3.45 µM
- TGI [35]: 7.07 µM
- TGI [36]: 4.09 µM
- TGI [37]: 7.17 µM
- TGI [38]: 10.8 µM
- TGI [39]: 9.33 µM
- TGI [40]: 5.81 µM
- TGI [41]: 3.97 µM
- TGI [42]: 2.98 µM
- TGI [44]: > 100 µM
- TGI [45]: 3.89 µM
- TGI [46]: 14.4 µM
- TGI [47]: 4.07 µM
- TGI [48]: 3.57 µM
- TGI [49]: 3.72 µM
- TGI [50]: 3 µM
- TGI [51]: 14.5 µM
- TGI [52]: 3.66 µM
- TGI [53]: 4.33 µM
- TGI [59]: 4.8 µM
- TGI [55]: 4.11 µM
- TGI [56]: 4.25 µM
- TGI [57]: 17.1 µM

From PubChem BioAssay (NCI)
